Test results reported in patent US20210179577A1, “AROMATIC SULFONAMIDE DERIVATIVES FOR THE TREATMENT OF ISCHEMIC STROKE” (Bayer Aktiengesellschaft, priority 2017, published 2021).

Assays:
Assay type in all cases: cell-based
hP2X4 = target: T1, hP2X4 (Homo sapiens, UniProt Q99571); assay: Human P2X4 HEK Cell Electrophysiology Assay B (QPatch); details: ATP 5 microM, -90 mV; read-out: Human P2X4 HEK Cells (QPatch Electrophysiology) avg IC50
T1 construct: expressed in transfected cells; host or cells: HEK-293 mito-Photina, clone 2a/4
T1 sequence (Q99571 1-388): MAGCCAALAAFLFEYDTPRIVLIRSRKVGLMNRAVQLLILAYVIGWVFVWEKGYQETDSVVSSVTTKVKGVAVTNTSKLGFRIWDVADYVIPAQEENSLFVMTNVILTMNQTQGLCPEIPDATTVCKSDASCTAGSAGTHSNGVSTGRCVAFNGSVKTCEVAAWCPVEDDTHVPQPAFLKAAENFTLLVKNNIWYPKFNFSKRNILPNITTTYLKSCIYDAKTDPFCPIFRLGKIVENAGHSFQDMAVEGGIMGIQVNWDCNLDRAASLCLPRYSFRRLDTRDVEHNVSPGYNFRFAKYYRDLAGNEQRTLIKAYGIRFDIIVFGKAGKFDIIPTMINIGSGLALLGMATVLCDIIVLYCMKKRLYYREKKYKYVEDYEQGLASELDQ
Method: Cell culture conditions: HEK-293 mito-Photina pcDNA3(neo-)/pPURO N/pcDNA3_P2RX4, clone 2a/4 (HEK-293 mito-Photina/hP2RX4) cells were cultured in EMEM Minimum Essential Medium Eagle with Earl's salts Balanced Salt Solution (BioWhittaker cat. BE12-125F) supplemented with 5 mL of 200 mM Ultraglutaminel (BioWhittaker cat. BE17-605E/U1), 5 mL of 100× Penicillin/Streptomycin (BioWhittaker cat. DE17-602E; final concentration 1%), 4 mL of 50 mg/mL G418 (Sigma cat. G8168-100 mL; final concentration 400 μg/mL), 10 μL of 10 mg/mL Puromicin (InvivoGen cat. ant-pr-1; final concentration 0.2 μg/mL) and 50 mL of Fetal Bovine Serum (Sigma cat. F7524; final concentration 10%).
Experimentalprotocol: HEK-293 cell lines are seeded 72 or 96 hours before experiment, at a concentration of 5 or 2.5 million cells, respectively onto a T225 flask. Just before the experiments cells are washed twice with D-PBS w/o Ca2+/Mg2+(Euroclone cat. ECB4004L) and detached from the flask with trypsin-EDTA (Sigma, cat. T4174 diluted 1/10). Cells are then re-suspended in the suspension solution: 25 mL EX-CELL ACF CHO medium (Sigma, cat. C5467); 0.625 mL HEPES (BioWhittaker, cat. BE17-737E); 0.25 mL of 100× Penicillin/Streptomycin (BioWhittaker, cat. DE17-602E), 0.1 mL of Soybean Trypsin Inhibitor 10 mg/mL (Sigma, cat. T6522) and placed on the QPatch 16X.
Compound preparation and storage: Compound stock solutions (10 mM; 100% DMSO; stored at −20° C.) were used. Fresh solutions from stock (1 or 3 mM, 100% DMSO) were prepared just before the experiments (0.1% final DMSO concentration).
Patch clamp analysis with QPatch16X (FIG. 1): Standard whole-cell voltage clamp experiments are performed at room temperature using the multihole technology.
For the voltage clamp experiments on hP2X4, data are sampled at 2 KHz. After establishment of the seal and the passage in the whole cell configuration, the cells are held at −90 mV and the hP2X4 current is evoked by the agonist in the absence (vehicle period, i.e. 0.1% DMSO) or in the presence of the compound under investigation at increasing concentrations; see the application protocol in FIG. 1.
Output: the maximum inward current induced by the agonist (ATP 5 microM).
The intracellular solution contained (mM) 135 CsF, 10 NaCl, 1 EGTA, 10 HEPES (pH 7.2 with CsOH) whereas the extracellular solution (mM) 145 NaCl, 4 KCl, 0.5 MgCl2, 1 CaCl2, […], 10 Glucose (pH 7.4 with NaOH).
For data collection, the Sophion software was used and the analysis was performed off-line using Excel and GraphPad Prism.
When possible, i.e. when the % of inhibition with the highest concentration tested was more than 50%, the dose-response curves data were fitted with the following equation:
[X is log of concentration; Y is normalized response (100% down to 0%, decreasing as X increases); Log IC50 same log units as X; HillSlope is unitless slope factor or hill slope]

human P2X4 [1] = target: T2, human P2X4 (Homo sapiens, UniProt Q99571); assay: Human P2X4 HEK Cell FLIPR Assay; set-up: expressed in transfected cells; host or cells: HEK293; details: HEK293 cells, agonist Bz-ATP at EC80
T2 sequence (Q99571 1-388): T1 sequence (Q99571 1-388)
Method: HEK293 cells stably expressing human P2X4 were plated in poly-D-lysine-coated 384-well plates at a seeding density of 30000 cells/well and incubated overnight. P2X4 function was assessed by measuring intracellular calcium changes using the calcium-chelating dye Fluo8-AM (Molecular Devices) on a fluorescent imaging plate reader (FLEX/FLIPR station; Molecular Devices). On the day of the assay, the medium was removed and the cells were incubated for 30 min at 37° C. and 5% CO2 in 30 μL of dye buffer (Hank's balanced salt solution, 10 mM HEPES, 1.8 mM CaCl2, 1 mM MgCl2, 2 mM probenecid, 5 mM D-glucose monohydrate, 5 μM Fluo8-AM, pH=7.4). Compounds diluted in probenecid buffer (Hank's balanced salt solution, 10 mM HEPES, 1.8 mM CaCl2, 1 mM MgCl2, 2 mM probenecid, 5 mM D-glucose monohydrate, pH=7.4) were added in a volume of 10 μL and allowed to incubate for 30 min at room temperature. The final assay DMSO concentration was 0.5%. The agonist, Bz-ATP (Tocris), was added in a volume of 10 μL at a concentration representing the EC80 value. The EC80 value of Bz-ATP was determined each assay day prior to compound profiling. The fluorescence was measured for an interval of 120 sec at 2 sec intervals. The excitation and emission wavelengths used to monitor fluorescence were 470-495 nm and 515-575 nm, respectively. The data was analyzed based on the increase in peak relative fluorescence units (RFU) compared to the basal fluorescence and the data was normalized to the agonist control. The compounds were tested in triplicates per plate and mean values were plotted in Excel XL-Fit to determine IC50 values, percentage of maximal inhibition and the Hill coefficients.

rat P2X4 = target: T3, rat P2X4 (Rattus norvegicus, UniProt P51577); assay: FLIPR assay, rat P2X4 1321N1 Astrocytoma Cells; details: 1321N1 Astrocytoma cells
T3 construct: expressed in transfected cells; host or cells: 1321N1 astrocytoma cells
T3 sequence (P51577 1-388): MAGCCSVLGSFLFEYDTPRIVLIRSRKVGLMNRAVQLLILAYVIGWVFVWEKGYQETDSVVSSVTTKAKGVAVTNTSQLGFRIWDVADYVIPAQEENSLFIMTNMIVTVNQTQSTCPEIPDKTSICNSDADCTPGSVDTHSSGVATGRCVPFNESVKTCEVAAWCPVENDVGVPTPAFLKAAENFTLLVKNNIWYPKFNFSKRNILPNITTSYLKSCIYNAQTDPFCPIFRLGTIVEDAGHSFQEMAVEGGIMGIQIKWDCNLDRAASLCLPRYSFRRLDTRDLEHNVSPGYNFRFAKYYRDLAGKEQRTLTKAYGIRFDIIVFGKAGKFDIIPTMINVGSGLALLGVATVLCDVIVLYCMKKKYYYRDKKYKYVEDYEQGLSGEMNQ
Method: (§1) 1321N1 Astrocytoma cells stably expressing human P2X4 or rat P2X4 or mouse P2X4 were plated in Collagen ITO-treated microplate at a seeding density of 10000 cells/well and incubated overnight. P2X4 function was assessed by measuring intracellular calcium changes using the calcium-chelating dye Fluo8-AM (Molecular Devices) on a fluorescent imaging plate reader (FLEX/FLIPR station; Molecular Devices). On the day of the assay, the medium was removed and the cells were incubated for 30 min at […] and 5% CO2 in 30 μL of dye buffer (Hank's balanced salt solution, 10 mM HEPES, 1.8 mM CaCl2, 1 mM MgCl2, 2 mM probenecid, 5 mM D-glucose monohydrate, 5 μM Fluo8-AM, pH=7.4). Compounds diluted in probenecid buffer (Hank's balanced salt solution, 10 mM HEPES, 1.8 mM CaCl2, 1 mM MgCl2, 2 mM probenecid, 5 mM D-glucose monohydrate, pH=7.4) were added in a volume of 10 μL and allowed to incubate for 30 min at room temperature. The final assay DMSO concentration was 0.25%. The agonist, Mg-ATP (Sigma), was added in a volume of 10 μL at a concentration representing the EC80 value. EC80 was determined to be 0.5 μM for human and mouse P2X4 and 5 μM for rat P2X4. The fluorescence was measured for an interval of 120 sec at 2 sec intervals. The excitation and emission wavelengths used to monitor fluorescence were 470-495 nm and 515-575 nm, respectively. The data was analyzed based on the increase in peak relative fluorescence units (RFU) compared to the basal fluorescence and the data was normalized to the agonist control. The compounds were tested in triplicates per plate and mean values were plotted in Excel XLFit to determine IC50 values, percentage of maximal inhibition and the Hill coefficients.

human P2X4 [2] = target: T2, human P2X4; assay: FLIPR assay, human P2X4 1321N1 Astrocytoma Cells; set-up: expressed in transfected cells; details: 1321N1 Astrocytoma cells
Method: as §1

mouse P2X4 = target: T4, mouse P2X4 (Mus musculus, UniProt Q9JJX6); assay: FLIPR assay, mouse P2X4 1321N1 Astrocytoma Cells; details: 1321N1 Astrocytoma cells
T4 construct: expressed in transfected cells; host or cells: 1321N1 astrocytoma cells
T4 sequence (Q9JJX6 1-388): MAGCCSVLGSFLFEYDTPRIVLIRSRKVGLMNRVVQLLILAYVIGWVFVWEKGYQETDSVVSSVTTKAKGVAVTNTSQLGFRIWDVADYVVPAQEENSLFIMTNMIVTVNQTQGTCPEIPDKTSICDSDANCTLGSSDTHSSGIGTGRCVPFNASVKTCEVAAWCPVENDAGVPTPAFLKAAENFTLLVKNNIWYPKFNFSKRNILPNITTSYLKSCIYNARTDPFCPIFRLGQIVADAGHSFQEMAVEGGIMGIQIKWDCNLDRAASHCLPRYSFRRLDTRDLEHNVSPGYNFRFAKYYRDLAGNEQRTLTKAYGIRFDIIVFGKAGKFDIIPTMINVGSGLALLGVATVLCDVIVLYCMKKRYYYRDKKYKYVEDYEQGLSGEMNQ
Method: as §1

| IC50 (hP2X4) | IC50 (human P2X4 [1]) | EC80 of the agonist, rat P2X4 (rat P2X4) | EC80 of the agonist, human P2X4 (human P2X4 [2]) | EC80 of the agonist, mouse P2X4 (mouse P2X4) | Structure (SMILES) |
| --- | --- | --- | --- | --- | --- |
| 205 nM | 132 nM | – | – | – | Cn1cc(-c2ccc(NC(=O)Cc3ccccc3Cl)cc2S(N)(=O)=O)cn1 [Example 360, 2-(2-Chlorophenyl)-N-[4-(1-methyl-1H-pyrazol-4-yl)-3-sulfamoylphenyl]acetamide] |
| 2580 nM | 1240 nM | – | – | – | NS(=O)(=O)c1cc(NC(=O)Cc2ccccc2F)cnc1-n1cc(C(F)(F)F)cn1 [Example 381, 2-(2-Fluorophenyl)-N-{5-sulfamoyl-6-[4-(trifluoromethyl)-1H-pyrazol-1-yl]pyridin-3-yl}acetamide] |
| – | – | 5000 nM | 500 nM | 500 nM | Nc1ncnc2c1ncn2[C@@H]1O[C@H](COP(=O)(O)OP(=O)([O-])OP(=O)([O-])O)[C@@H](O)[C@H]1O.[Mg+2] [Mg-ATP, reference compound] |
